Data from US6391872B1, “Indazole bioisostere replacement of catechol in therapeutically active compounds” (Pfizer Inc, priority 1997, dated 2002).

Row | Structure (SMILES) | melting point [°C]
1 | CCc1nn(C2CCCC2)c2cc(C3(C#N)CCC(=O)CC3)ccc12 [Example 6, 1-(1-Cyclopentyl-3-ethyl-1H-indazol-6-yl)-4-oxo-cyclohexanecarbonitrile] | 81 to 89
2 | CCc1nn(-c2ccc(F)cc2)c2cc(C3=CCC(C(=O)O)CC3)ccc12 (stereo not drawn) [Example 28, 4-(3-ethyl-1-(4-fluorophenyl)-1H-indazol-6-yl)-cyclohex-3-ene-carboxylic acid] | 214 to 216
3 | CCc1nn(-c2ccc(F)cc2)c2cc(Br)ccc12 [Example 24, 6-Bromo-3-ethyl-1-(4-fluorophenyl)-1H-indazole] | 72 to 73
